Laboratory results taken from patent US11078216B2, “Bisaryl amides as NRF2 activators” (GLAXOSMITHKLINE INTELLECTUAL PROPERTY DEVELOPMENT LIMITED, priority 2016, dated 2021).
Structures can show the parent of a compound that is named as a salt.

Tested on: NRF2 (NQO1 activity as marker for NRF2 activation), BEAS-2B cells
Assay: BEAS-2B NQO1 MTT Assay
Format: cell-based
Conditions: Homo sapiens, EC50 of NQO1 specific activity induction, 48 hours incubation, read-out: EC50
Procedure, shortened: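 As a marker of NRF2 activation, NQO1 specific activity was read from the rate of absorbance change at 570 nm in MTT cocktail over 30 minutes. Lysates came from BEAS-2B cells treated for 48 hours at 37° C, and EC50 was derived by 3-parameter fitting.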

Compound	EC50 [nM]
CC[C@@H]1CN(Cc2cc([C@@H](c3cc(OC)c4c(nnn4CC)c3C)C(C)(C)C(=O)Nc3cccnc3)ccc2C)S(=O)(=O)c2ccccc2O1 [Example 64, (S)-3-(3-(((R)-4-Ethyl-1,1-dioxido-3,4-dihydro-2H-benzo[b][1,4,5]oxathiazepin-2-yl)methyl)-4-methylphenyl)-3-(1-ethyl-7-methoxy-4-methyl-1H-benzo[d][1,2,3]triazol-5-yl)-2,2-dimethyl-N-(pyridin-3-yl)propanamide]	1 to 10
CC[C@@H]1CN(Cc2cc([C@H](CC(=O)Nc3cccnc3)c3cc(OC)c4c(nnn4CC)c3C)ccc2C)S(=O)(=O)c2cccnc2O1 [Example 65, (S)-3-(3-(((R)-4-Ethyl-1,1-dioxido-3,4-dihydro-2H-pyrido[2,3-b][1,4,5]oxathiazepin-2-yl)methyl)-4-methylphenyl)-3-(1-ethyl-7-methoxy-4-methyl-1H-benzo[d][1,2,3]triazol-5-yl)-N-(pyridin-3-yl)propanamide]	10 to 100
CCn1nnc2c(C)c([C@H](c3ccc(C)c(CN4C[C@@H](C)Cc5cc(C(F)(F)F)ccc5S4(=O)=O)c3)C(C)(C)C(=O)Nc3cccnc3)cc(OC)c21 [Example 66, (S)-3-(1-Ethyl-7-methoxy-4-methyl-1H-benzo[d][1,2,3]triazol-5-yl)-2,2-dimethyl-3-(4-methyl-3-(((S)-4-methyl-1,1-dioxido-7-(trifluoromethyl)-4,5-dihydrobenzo[f][1,2]thiazepin-2(3H)-yl)methyl)phenyl)-N-(pyridin-3-yl)propanamide]	10 to 100
CC[C@@H]1CN(Cc2cc([C@H](CC(=O)Nc3nn[nH]n3)c3ccc4c(nnn4CC)c3C)ccc2C)S(=O)(=O)c2cccnc2O1 [Example 67, (S)-3-(3-(((R)-4-Ethyl-1,1-dioxido-3,4-dihydro-2H-pyrido[2,3-b][1,4,5]oxathiazepin-2-yl)methyl)-4-methylphenyl)-3-(1-ethyl-4-methyl-1H-benzo[d][1,2,3]triazol-5-yl)-N-(2H-tetrazol-5-yl)propanamide]	100 to 1000
CC[C@@H]1CN(Cc2cc([C@@H](c3ccc4c(nnn4CC)c3C)C(C)(C)C(N)=O)ccc2C)S(=O)(=O)c2cccnc2O1 [Example 68, (S)-3-(3-(((R)-4-Ethyl-1,1-dioxido-3,4-dihydro-2H-pyrido[2,3-b][1,4,5]oxathiazepin-2-yl)methyl)-4-methylphenyl)-3-(1-ethyl-4-methyl-1H-benzo[d][1,2,3]triazol-5-yl)-2,2-dimethylpropanamide]	1 to 10
Cc1ccc(C(CC(=O)Nc2cccnc2)c2ccc(C#N)cc2C)cc1CN1CC(C)Cc2ccc(C(F)(F)F)cc2S1(=O)=O (centres unmarked) [Example 70, 3-(4-Cyano-2-methylphenyl)-3-(4-methyl-3-((4-methyl-1,1-dioxido-8-(trifluoromethyl)-4,5-dihydrobenzo[f][1,2]thiazepin-2(3H)-yl)methyl)phenyl)-N-(pyridin-3-yl)propanamide]	100 to 1000
CC[C@H]1Cc2ccccc2S(=O)(=O)N(Cc2cc([C@@H](c3ccc4c(nnn4CC)c3C)C(C)(C)C(=O)Nc3ncns3)ccc2C)C1 [Example 71, (S)-3-(3-(((S)-4-Ethyl-1,1-dioxido-4,5-dihydrobenzo[f][1,2]thiazepin-2(3H)-yl)methyl)-4-methylphenyl)-3-(1-ethyl-4-methyl-1H-benzo[d][1,2,3]triazol-5-yl)-2,2-dimethyl-N-(1,2,4-thiadiazol-5-yl)propanamide]	1 to 10
CC[C@H]1Cc2ccccc2S(=O)(=O)N(Cc2cc([C@@H](c3ccc4c(nnn4CC)c3C)C(C)(C)C(=O)Nc3nnnn3-c3ccccc3)ccc2C)C1 [Example 72, (S)-3-(3-(((S)-4-Ethyl-1,1-dioxido-4,5-dihydrobenzo[f][1,2]thiazepin-2(3H)-yl)methyl)-4-methylphenyl)-3-(1-ethyl-4-methyl-1H-benzo[d][1,2,3]triazol-5-yl)-2,2-dimethyl-N-(1-phenyl-1H-tetrazol-5-yl)propanamide]	10 to 100
CC[C@H]1Cc2ccccc2S(=O)(=O)N(Cc2cc([C@@H](c3ccc4c(nnn4CC)c3C)C(C)(C)C(=O)Nc3nnnn3CC(C)=O)ccc2C)C1 [Example 73, (S)-3-(3-(((S)-4-Ethyl-1,1-dioxido-4,5-dihydrobenzo[f][1,2]thiazepin-2(3H)-yl)methyl)-4-methylphenyl)-3-(1-ethyl-4-methyl-1H-benzo[d][1,2,3]triazol-5-yl)-2,2-dimethyl-N-(1-(2-oxopropyl)-1H-tetrazol-5-yl)propanamide]	10 to 100
CC[C@H]1Cc2ccccc2S(=O)(=O)N(Cc2cc([C@@H](c3ccc4c(nnn4CC)c3C)C(C)(C)C(=O)Nc3nnnn3-c3ccccn3)ccc2C)C1 [Example 74, (S)-3-(3-(((S)-4-Ethyl-1,1-dioxido-4,5-dihydrobenzo[f][1,2]thiazepin-2(3H)-yl)methyl)-4-methylphenyl)-3-(1-ethyl-4-methyl-1H-benzo[d][1,2,3]triazol-5-yl)-2,2-dimethyl-N-(1-(pyridin-2-yl)-1H-tetrazol-5-yl)propanamide]	1 to 10
CC[C@H]1Cc2ccccc2S(=O)(=O)N(Cc2cc([C@@H](c3ccc4c(nnn4CC)c3C)C(C)(C)C(=O)Nc3nnnn3Cc3nccs3)ccc2C)C1 [Example 75, (S)-3-(3-(((S)-4-Ethyl-1,1-dioxido-4,5-dihydrobenzo[f][1,2]thiazepin-2(3H)-yl)methyl)-4-methylphenyl)-3-(1-ethyl-4-methyl-1H-benzo[d][1,2,3]triazol-5-yl)-2,2-dimethyl-N-(1-(thiazol-2-ylmethyl)-1H-tetrazol-5-yl)propanamide]	1 to 10
CC[C@H]1Cc2ccccc2S(=O)(=O)N(Cc2cc([C@@H](c3ccc4c(nnn4CC)c3C)C(C)(C)C(=O)Nc3nnnn3CC(=O)O)ccc2C)C1 [Example 76, 2-(5-((S)-3-(3-(((S)-4-Ethyl-1,1-dioxido-4,5-dihydrobenzo[f][1,2]thiazepin-2(3H)-yl)methyl)-4-methylphenyl)-3-(1-ethyl-4-methyl-1H-benzo[d][1,2,3]triazol-5-yl)-2,2-dimethylpropanamido)-1H-tetrazol-1-yl)acetic Acid]	10 to 100
CC[C@@H]1CN(Cc2cc([C@@H](c3ccc4c(nnn4CC)c3C)C(C)(C)NC(=O)c3nnn[nH]3)ccc2C)S(=O)(=O)c2ccccc2O1 [Example 77, N—((S)-1-(3-(((R)-4-Ethyl-1,1-dioxido-3,4-dihydro-2H-benzo[b][1,4,5]oxathiazepin-2-yl)methyl)-4-methylphenyl)-1-(1-ethyl-4-methyl-1H-benzo[d][1,2,3]triazol-5-yl)-2-methylpropan-2-yl)-1H-tetrazole-5-carboxamide, Trifluoroacetic Acid Salt]	100 to 1000
CC[C@H]1Cc2ccc(C(F)(F)F)cc2S(=O)(=O)N(Cc2cc([C@@H](c3ccc4c(nnn4CC)c3C)C(C)(C)NC(=O)Cc3nnn[nH]3)ccc2C)C1 [Example 78, N—((S)-1-(3-(((S)-4-Ethyl-1,1-dioxido-8-(trifluoromethyl)-4,5-dihydrobenzo[f][1,2]thiazepin-2(3H)-yl)methyl)-4-methylphenyl)-1-(1-ethyl-4-methyl-1H-benzo[d][1,2,3]triazol-5-yl)-2-methylpropan-2-yl)-2-(1H-tetrazol-5-yl)acetamide]	10 to 100
CC[C@@H]1CN(Cc2cc([C@@H](c3ccc4c(nnn4C)c3C)C(C)(C)C(=O)NCCNC)ccc2C)Cc2cnccc2O1 [Example 79, (S)-3-(1,4-Dimethyl-1H-benzo[d][1,2,3]triazol-5-yl)-3-(3-(((R)-2-ethyl-2,3-dihydropyrido[3,4-f][1,4]oxazepin-4(5H)-yl)methyl)-4-methylphenyl)-2,2-dimethyl-N-(2-(methylamino)ethyl)propanamide]	100 to 1000
CC[C@H]1Cc2ccccc2S(=O)(=O)N(Cc2cc([C@H](CC(=O)Nc3cccnc3)c3ccc4c(nnn4CC)c3F)ccc2C)C1 [Example 80, (S)-3-(3-(((S)-4-Ethyl-1,1-dioxido-4,5-dihydrobenzo[f][1,2]thiazepin-2(3H)-yl)methyl)-4-methylphenyl)-3-(1-ethyl-4-fluoro-1H-benzo[d][1,2,3]triazol-5-yl)-N-(pyridin-3-yl)propanamide]	10 to 100
CC[C@H]1Cc2ccccc2S(=O)(=O)N(Cc2cc([C@H](CC(=O)NCCNC)c3ccc4c(nnn4CC)c3F)ccc2C)C1 [Example 81, (S)-3-(3-(((S)-4-Ethyl-1,1-dioxido-4,5-dihydrobenzo[f][1,2]thiazepin-2(3H)-yl)methyl)-4-methylphenyl)-3-(1-ethyl-4-fluoro-1H-benzo[d][1,2,3]triazol-5-yl)-N-(2-(methylamino)ethyl)propanamide]	10 to 100
CCCn1cc(CC[C@@H](c2ccc(C)c(CN3C[C@@H](CC)Oc4ccccc4S3(=O)=O)c2)C(C)(C)C(=O)Nc2cccnc2)nn1 [Example 82, (S)-3-(3-(((R)-4-Ethyl-1,1-dioxido-3,4-dihydro-2H-benzo[b][1,4,5]oxathiazepin-2-yl)methyl)-4-methylphenyl)-2,2-dimethyl-5-(1-propyl-1H-1,2,3-triazol-4-yl)-N-(pyridin-3-yl)pentanamide]	100 to 1000
CCCn1cc(CC[C@H](c2ccc(C)c(CN3C[C@@H](CC)Oc4ccccc4S3(=O)=O)c2)C(C)(C)C(=O)Nc2cccnc2)nn1 [Example 83, (R)-3-(3-(((R)-4-Ethyl-1,1-dioxido-3,4-dihydro-2H-benzo[b][1,4,5]oxathiazepin-2-yl)methyl)-4-methylphenyl)-2,2-dimethyl-5-(1-propyl-1H-1,2,3-triazol-4-yl)-N-(pyridin-3-yl)pentanamide]	100 to 1000
CC[C@@H]1CN(Cc2cc([C@@H](c3ccc4c(nnn4C)c3C)C(C)(C)C(=O)Nc3cccnc3)ccc2Cl)S(=O)(=O)c2ccccc2O1 [Example 84, (S)-3-(4-Chloro-3-(((R)-4-ethyl-1,1-dioxido-3,4-dihydro-2H-benzo[b][1,4,5]oxathiazepin-2-yl)methyl)phenyl)-3-(1,4-dimethyl-1H-benzo[d][1,2,3]triazol-5-yl)-2,2-dimethyl-N-(pyridin-3-yl)propanamide]	10 to 100
